Biological target: streptavidin (Streptomyces avidinii, UniProt P22629)
Test: Competition of Cy-5 labelled biotin binding to streptavidin coated beads, mixed wells analysed by flow cytometry
Conditions: well 2, bead type B (purple fluor), buffer containing biotin added before Cy-5 labelled biotin; compared with well 1 (buffer only)
Procedure: Streptavidin coated bead type A (yellow fluor) and bead type B (purple fluor) were pipetted into two separate wells of a microtitre plate, such that well 1 contained bead A and well 2 contained bead B. Buffer was added to well 1 and buffer containing biotin was added to well 2. Following mixing arid incubation a solution of Cy-5 labelled biotin in buffer was added to both wells. Following further incubation the contents of well 1 and well 2 were combined and the mixture analysed by flow cytometry.

streptavidin, sequence (P22629 25-183, species assumed): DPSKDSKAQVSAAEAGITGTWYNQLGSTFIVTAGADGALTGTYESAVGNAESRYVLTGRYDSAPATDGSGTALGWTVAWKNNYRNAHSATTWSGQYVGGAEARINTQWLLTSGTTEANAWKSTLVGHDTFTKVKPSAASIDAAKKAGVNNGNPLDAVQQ

O=C(O)CCCC[C@@H]1SC[C@@H]2NC(=O)N[C@@H]21 [biotin]
Cy-5 fluorescence associated with bead type (Cy-5-biotin binding to streptavidin on the bead surface): low Cy-5-biotin binding

Reference: patent US6913935B1, “Multiple assay method” (Amersham Biosciences UK Limited, priority 1998, dated 2005)
